Counter-ions that a name gives are not always drawn. Like-named read-outs stand apart in the source and are kept apart here.
Tests used:
in vivo = conditions: mouse, ip
[1] = Local anaesthesic activity; type: in vivo; conditions: read-out: Local anaesthesic activity ED50
mice = test: Anti-arrhythmic activity in mice; type: in vivo; conditions: Mus musculus, po, 0.5 h, read-out: Anti-arrhythmic activity: number of mice protected in relation with the number of tested mice
Method: ^(4) Number of mice protected in relation with the number of tested
mice (dose = 100 mg/kg per os; recording 30 min. after administration)

[2] = tested on: isolated auricles of guinea pigs; conditions: dose 1.10 - 6 g/ml of bath
[3] = Solubility of salt in water; type: physicochemical
Method: To 1.20 g of 1-(3-methyl-4-methylthiophenyl)-2-isopropylaminoethanol in 40 ml of water, 1.96 ml of a 50% gluconic acid solution are added. The mixture is heated in water-bath during 1 hour at 70°, then the solution is lyophilised (2.18 g of the salt obtained are soluble in 5 ml of water and give a pH of 4.6).
To 1.2 g of 1-(3-methyl-4-methylthiophenyl)-2-isopropylaminoethanol in 32 ml of water, 0.53 g of a 85% aqueous lactic acid solution are added. The product is heated in a water-bath for 2 hours at 50°, then the solution is lyophilised. (1.55g of the salt obtained are soluble in 5 ml of water).

[4] = Peripherical vasodilatator activity (intra-arterial); type: in vivo; conditions: dose = 30 γ/kg intra-arterial
Excerpt: activity equal to that of papaverine; ++++ = activity higher than that of
papaverine (dose = 30 γ /kg intra-arterial)

[5] = 100 mg/kg per os, recording 30 min. after administration

Cc1cc(C(O)CN2CCCCC2)ccc1SCC(C)C (stereo not shown) [compound 86]
LD50 (in vivo): 110 mg/kg

CCCCSc1ccc(C(O)CN(C)C)cc1C (stereo not shown) [compound 94]
LD50 (in vivo): 150 mg/kg

CCCCNCC(O)c1ccc(SCC)c(C)c1 (stereo not shown) [compound 80]
ED50 [1]: > 5 mg/kg | LD50 (in vivo): 110 mg/kg

CCc1cc(C(O)CNC(C)(C)C)ccc1SC (stereo not shown) [Table III No. 50]
ED50 [1]: > 5 mg/kg | responders at 100 mg/kg (mice): 50%

CCCCSc1ccc(C(O)CN2CCCC(C)C2)cc1C (stereo not shown) [compound 95]
LD50 (in vivo): 150 mg/kg

CSc1ccc(C(O)CNC(C)C)cc1Cl (stereo not shown) [Table III No. 11, 1-(3-Chloro-4-methylthiophenyl)-2-isopropylaminoethanol]
ED50 [1]: > 5 mg/kg | responders at 100 mg/kg (mice): 55% | LD50 (in vivo): 150 mg/kg | Protection against anoxia, activity [2]: ++

CCCCCCSc1ccc(C(O)CNCCC)cc1C (stereo not shown) [compound 112]
LD50 (in vivo): 364 mg/kg

CCCCCSc1ccc(C(O)CNCCCC)cc1C (stereo not shown) [compound 104]
LD50 (in vivo): 75 mg/kg

CSc1ccc(C(O)CNC(C)C)cc1C (stereo not shown) [1-(3-Methyl-4-methylthiophenyl)-2-isopropylaminoethanol gluc] [1-(3-Methyl-4-methylthiophenyl)-2-isopropylaminoethanol gluconate]
pH of solution of salt in water ([3]; 2.18 g in 5 ml of water): 4.6 | amount of salt soluble in 5 ml of water [3]: ≥ 2.18 g

CCC(C(O)c1ccc(SC)c(Cl)c1)N1CCOCC1 (stereo not shown) [Table III No. 28]
ED50 [1]: > 5 mg/kg

CSc1c(C)cc(C(O)CN2CCCCC2)cc1Cl (stereo not shown) [compound 62]
LD50 (in vivo): 220 mg/kg

Cc1cc(C(O)CN2CCC(C)CC2)ccc1SCC(C)C (stereo not shown) [compound 85]
LD50 (in vivo): 182 mg/kg

CSc1c(C)cc(C(O)CNC(C)C)cc1Cl (stereo not shown) [Table III No. 64]
ED50 [1]: 4.1 mg/kg | LD50 (in vivo): 182 mg/kg

CCCCNCC(O)c1ccc(SCCCC)c(C)c1 (stereo not shown) [compound 97]
LD50 (in vivo): 110 mg/kg

CCCCCCSc1ccc(C(O)CN2CCCCC2)cc1C (stereo not shown) [compound 108]
LD50 (in vivo): 182 mg/kg

CCc1cc(C(O)CNC(C)CC)ccc1SC (stereo not shown) [Table III No. 51, 1-(3-Ethyl-4-methylthiophenyl)-2-secbutylaminoethanol]
ED50 [1]: > 5 mg/kg | responders at 100 mg/kg (mice): 60%

CCC(C)NC(C)C(O)c1ccc(SC)c(Cl)c1 (stereo not shown) [Table III No. 8]
LD50 (in vivo): 150 mg/kg

CCC(C)NCC(O)c1ccc(SC)c(C)c1 (stereo not shown) [Table III No. 33, 1-(3-Methyl-4-methylthiophenyl)-2-secbutylaminoethanol]
ED50 [1]: ~5 mg/kg | responders at 100 mg/kg (mice): 40%

CCCCSc1ccc(C(O)CN2CCC(C)CC2)cc1C (stereo not shown) [Table IV No. 63]
ED50 ([1]; ED50, interval in brackets): 4.1 mg/kg | responders at 100 mg/kg (mice; [5]): 20%

CCCCSc1ccc(C(O)CNC(C)(C)C)cc1C (stereo not shown) [compound 90]
LD50 (in vivo): 91 mg/kg

CSc1ccc(C(O)CNC(C)C)cc1C (stereo not shown) [Table III No. 1, 1-(3-methyl-4-methylthiophenyl)-2-isopropylaminoethanol]
ED50 [1]: 4.5 mg/kg | responders at 100 mg/kg (mice): 60% | LD50 (in vivo): 150 mg/kg | Protection against anoxia, activity [2]: ++

CCCCCCCCSc1ccc(C(O)CNC(C)CC)cc1C (stereo not shown) [Table III No. 117]
responders at 100 mg/kg (mice): 30%

CCSc1ccc(C(O)CNCCc2ccccc2)cc1C (stereo not shown) [compound 81]
LD50 (in vivo): 75 mg/kg

CSc1ccc(C(O)CNC(C)C)cc1C (stereo not shown) [1-(3-Methyl-4-methylthiophenyl)-2-isopropylaminoethanol lact] [1-(3-Methyl-4-methylthiophenyl)-2-isopropylaminoethanol lactate]
amount of salt soluble in 5 ml of water [3]: ≥ 1.55 g

CSc1ccc(C(O)CNC2CCCCC2)cc1C (stereo not shown) [Table IV No. 24]
ED50 [1]: > 5 mg/kg | responders at 100 mg/kg (mice): 40%

CCSc1ccc(C(O)CNC(C)C)cc1C (stereo not shown) [compound 74]
LD50 (in vivo): 150 mg/kg

CCSc1ccc(C(O)CNC(C)Cc2ccccc2)cc1C (stereo not shown) [compound 83]
LD50 (in vivo): 110 mg/kg

COc1ccc(Cc2nccc3cc(OC)c(OC)cc23)cc1OC [Papaverine, reference compound]
LD50 (in vivo): 300 mg/kg | Protection against anoxia, activity [2]: 0

CSc1ccc(C(O)CNC(C)Cc2ccccc2)cc1C (stereo not shown) [compound 31]
LD50 (in vivo): 75 mg/kg

Cc1cc(C(O)CN2CCOCC2)ccc1SC(C)C (stereo not shown) [compound 126]
LD50 (in vivo): 440 mg/kg

Cc1cc(C(O)CN2CCCCC2)ccc1SC(C)C (stereo not shown) [compound 124]
LD50 (in vivo): 150 mg/kg

CCCCCCSc1ccc(C(O)CNC(C)(C)C)cc1C (stereo not shown) [compound 107]
LD50 (in vivo): 110 mg/kg

CSc1ccc(C(O)CNC(C)(C)C)cc1C (stereo not shown) [Table III No. 12]
Protection against anoxia, activity [2]: +

CSc1ccc(C(O)CNC(C)Cc2ccccc2)cc1Cl (stereo not shown) [Table III No. 22]
LD50 (in vivo): 55 mg/kg

Cc1cc(C(O)CNC(C)C)ccc1SC(C)C (stereo not shown) [compound 127]
LD50 (in vivo): 182 mg/kg

CSc1ccc(C(O)CNC2CCCCC2)cc1C (stereo not shown) [CH3 S--, 3CH3 (amine drawn)]
Protection against anoxia, activity [2]: ++

CCCCSc1ccc(C(O)CN2CCC(C)CC2)cc1C (stereo not shown) [compound 96]
LD50 (in vivo): 182 mg/kg

CSc1ccc(C(O)CN2CCCCC2)cc1C (stereo not shown) [CH3 S--, 3CH3 (amine drawn)]
Protection against anoxia, activity [2]: +

CSc1ccc(C(O)CN2CCCCC2)cc1Cl (stereo not shown) [Table III No. 24]
Peripherical vasodilatator activity [4]: + ++ | LD50 (in vivo): 364 mg/kg

CCCC(NC(C)CC)C(O)c1ccc(SC)c(Cl)c1 (stereo not shown) [compound 40]
ED50 [1]: ~5 mg/kg

COc1cc(C(O)CNC(C)(C)C)ccc1SC (stereo not shown) [Table IV No. 33, 1-(3-Methoxy-4-methylthiophenyl)-2-tertbutylaminoethanol hydrochloride]
responders at 100 mg/kg (mice): 20%

Cc1cc(C(O)CNC(C)(C)C)ccc1SC(C)C (stereo not shown) [compound 125]
LD50 (in vivo): 150 mg/kg

CCCCCCCCNCC(O)c1ccc(SC)c(CC)c1 (stereo not shown) [compound 45]
LD50 (in vivo): 75 mg/kg

Cc1cc(C(O)CN2CCC(C)CC2)ccc1SC(C)C (stereo not shown) [compound 133]
LD50 (in vivo): 110 mg/kg

CCC(C)NCC(O)c1ccc(SC)c(C)c1 (stereo not shown) [compound 33]
Peripherical vasodilatator activity [4]: ++ +

CCCCSc1ccc(C(O)CNC(C)C(O)c2ccccc2)cc1C (stereo not shown) [Table IV No. 66]
responders at 100 mg/kg (mice): 20%

CCN(CC)CCOC(=O)c1ccc(N)cc1 [Procaine, reference compound]
ED50 [1]: 1.8 mg/kg

CCc1cc(C(O)CNC(C)C)ccc1SC (stereo not shown) [Table III No. 47, 1-(3-Ethyl-4-methylthiophenyl)-2-isopropylaminoethanol]
responders at 100 mg/kg (mice): 65% | Protection against anoxia, activity [2]: ++

CSc1ccc(C(O)C(C)N2CCC(C)CC2)cc1C (stereo not shown) [Table III No. 20]
LD50 (in vivo): 91 mg/kg

CSc1ccc(C(O)CN2CCCCC2)cc1C (stereo not shown) [Table IV No. 8]
ED50 ([1]; ED50, interval in brackets): 1.6 mg/kg | responders at 100 mg/kg (mice; [5]): 20%

CSc1ccc(C(O)CNC(C)(C)C)cc1Cl (stereo not shown) [Table III No. 2]
responders at 100 mg/kg (mice): 10%

CCSc1ccc(C(O)CNC2CCCCC2)cc1C (stereo not shown) [Table III No. 77]
LD50 (in vivo): 91 mg/kg

CCCCCCCCNCC(O)c1ccc(SC(C)C)c(C)c1 (stereo not shown) [compound 131]
LD50 (in vivo): 86 mg/kg

C=C[C@H]1C[N@@]2CC[C@H]1C[C@@H]2[C@@H](O)c1ccnc2ccc(OC)cc12 [Quinidine, reference compound]
responders at 100 mg/kg (mice; [5]): 20%

CCCCCCSc1ccc(C(O)CN2CCOCC2)cc1C (stereo not shown) [compound 109]
LD50 (in vivo): 600 mg/kg

CCc1cc(C(O)CNC(C)CC)ccc1SC (stereo not shown) [compound 51]
Peripherical vasodilatator activity [4]: + ++

CSc1ccc(C(O)C(C)NC(C)(C)C)cc1Cl (stereo not shown) [Table III No. 3]
ED50 [1]: > 5 mg/kg | responders at 100 mg/kg (mice): 10% | LD50 (in vivo): 440 mg/kg

CC(C)NCC(O)COc1cccc2ccccc12 (stereo not shown) [Propranolol, reference compound]
ED50 [1]: 1.4 mg/kg | responders at 100 mg/kg (mice): 100% | Protection against anoxia, activity [2]: 0

Cc1cc(C(O)CNC2CCCCC2)ccc1SC(C)C (stereo not shown) [compound 130]
LD50 (in vivo): 75 mg/kg

CCCCSc1ccc(C(O)CN2CCCCC2)cc1C (stereo not shown) [compound 93]
LD50 (in vivo): 182 mg/kg

CCSc1ccc(C(O)CNC2CCCCC2)cc1C (stereo not shown) [Table IV No. 51]
ED50 [1]: > 5 mg/kg

CSc1ccc(C(O)CNC(C)C)cc1F (stereo not shown) [Table III No. 58, 1-(3-fluoro-4-methylthiophenyl)-2-isopropylaminoethanol]
ED50 [1]: > 5 mg/kg | responders at 100 mg/kg (mice): 20%

CCSc1ccc(C(O)CNC(C)(C)C)cc1C (stereo not shown) [Table III No. 73]
ED50 [1]: ~5 mg/kg | LD50 (in vivo): 220 mg/kg

CSc1ccc(C(O)CN2CCC(C)CC2)cc1C (stereo not shown) [Table IV No. 27]
ED50 ([1]; ED50, interval in brackets): > 5 mg/kg | responders at 100 mg/kg (mice; [5]): 20%

CSc1ccc(C(O)CN)cc1C (stereo not shown) [compound 41]
LD50 (in vivo): 150 mg/kg

CCCCNCC(O)c1ccc(SC)c(Cl)c1 (stereo not shown) [Table III No. 15]
LD50 (in vivo): 110 mg/kg

CCc1cc(C(O)CNC(C)(C)C)ccc1SC (stereo not shown) [compound 50]
LD50 (in vivo): 150 mg/kg

CCCCNCC(O)c1ccc(SC(C)C)c(C)c1 (stereo not shown) [compound 129]
LD50 (in vivo): 46 mg/kg

CCCCCSc1ccc(C(O)CNC(C)(C)C)cc1C (stereo not shown) [compound 102]
LD50 (in vivo): 91 mg/kg

— patent publication US3954871A, “1-(4-Alkylthiopheny)-2-substituted amino-alcohols and their salts” (Continental Pharma, priority 1969, dated 1976)
